From PMC6249675 (Structure (London, England : 1993), 2018) come the findings set out here.

Assay [1] deals with T1, Rac1 (Homo sapiens, UniProt P63000). Briefly: strong anion exchange chromatography of co-purified nucleotide. The format is binding. The conditions noted are these: co-purified from E. coli.
The target of assay [2] is T1, Rac1. Briefly: GTP hydrolysis followed by strong anion exchange chromatography. In kind it is biochemical. To be noted: 5 mM GTP, 5 mM MgCl2, room temperature, 24 h.
The target in another assay is T2, Rnd3 (Homo sapiens, UniProt P61587).
T2 sequence (P61587 19-200): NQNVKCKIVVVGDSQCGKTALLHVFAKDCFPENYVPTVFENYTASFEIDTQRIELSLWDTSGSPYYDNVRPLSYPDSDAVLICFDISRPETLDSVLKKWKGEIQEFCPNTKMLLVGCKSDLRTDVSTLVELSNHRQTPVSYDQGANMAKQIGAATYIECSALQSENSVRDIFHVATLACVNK
Briefly: strong anion exchange chromatography of co-purified nucleotide. The format is binding. To be noted: co-purified from E. coli; not hydrolysed.

In the case of `Nc1nc2c(ncn2[C@@H]2O[C@H](COP(=O)(O)OP(=O)(O)O)[C@@H](O)[C@H]2O)c(=O)[nH]1` [GDP], at Rac1 [1], the “strong anion exchange chromatography of co-purified nucleotide” value was “wild-type Rac1 which, like other active GTPases, is bound predominantly to GDP”.

Regarding `Nc1nc2c(ncn2[C@@H]2O[C@H](COP(=O)(O)OP(=O)(O)OP(=O)(O)O)[C@@H](O)[C@H]2O)c(=O)[nH]1` [GTP], on Rac1 [2], the “GTP hydrolysis followed by strong anion exchange chromatography” value was “Rac1 (preloaded with GTP) exhibits complete hydrolysis of GTP to GDP in identical conditions”. Moreover, the “strong anion exchange chromatography of co-purified nucleotide” value at Rnd3 was “N-GTPase is similar to the pseudoGTPase Rnd3, which binds only GTP (Fig. 4d)”.
